Earlier results as cited in US9265822B2 (priority 2009, dated 2016).

System: American isolates of H3N2

SMILES	measured resistance [%]
NC12CC3CC(CC(C3)C1)C2 [amantadine]	91
CC(N)C12CC3CC(CC(C3)C1)C2 (centres unmarked) [rimantadine]	91
